Results on 27 compounds are retold here after patent publication US20260356810A1, “NOVEL PIPERAZINE-BASED SULFONAMIDES AND THEIR USE AS NEUROPROTECTIVE AND/OR NEURORESTORATIVE AGENTS” (GENECODE, priority 2022, published 2026).

T1 sequence (P56159 25-429 limits assumed): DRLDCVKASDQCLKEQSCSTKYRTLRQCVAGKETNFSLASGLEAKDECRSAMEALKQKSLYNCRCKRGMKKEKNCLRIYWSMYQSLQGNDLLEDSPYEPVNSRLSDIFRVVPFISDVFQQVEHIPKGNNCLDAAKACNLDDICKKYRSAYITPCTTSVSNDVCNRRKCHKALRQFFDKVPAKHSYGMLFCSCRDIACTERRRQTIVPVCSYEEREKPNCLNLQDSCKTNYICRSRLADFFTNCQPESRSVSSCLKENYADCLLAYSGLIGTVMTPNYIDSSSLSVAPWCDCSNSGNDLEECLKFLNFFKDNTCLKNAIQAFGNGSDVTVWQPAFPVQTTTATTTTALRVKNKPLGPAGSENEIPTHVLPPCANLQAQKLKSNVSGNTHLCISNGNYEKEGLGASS
T1 sequence (P07949 29-1114 partner): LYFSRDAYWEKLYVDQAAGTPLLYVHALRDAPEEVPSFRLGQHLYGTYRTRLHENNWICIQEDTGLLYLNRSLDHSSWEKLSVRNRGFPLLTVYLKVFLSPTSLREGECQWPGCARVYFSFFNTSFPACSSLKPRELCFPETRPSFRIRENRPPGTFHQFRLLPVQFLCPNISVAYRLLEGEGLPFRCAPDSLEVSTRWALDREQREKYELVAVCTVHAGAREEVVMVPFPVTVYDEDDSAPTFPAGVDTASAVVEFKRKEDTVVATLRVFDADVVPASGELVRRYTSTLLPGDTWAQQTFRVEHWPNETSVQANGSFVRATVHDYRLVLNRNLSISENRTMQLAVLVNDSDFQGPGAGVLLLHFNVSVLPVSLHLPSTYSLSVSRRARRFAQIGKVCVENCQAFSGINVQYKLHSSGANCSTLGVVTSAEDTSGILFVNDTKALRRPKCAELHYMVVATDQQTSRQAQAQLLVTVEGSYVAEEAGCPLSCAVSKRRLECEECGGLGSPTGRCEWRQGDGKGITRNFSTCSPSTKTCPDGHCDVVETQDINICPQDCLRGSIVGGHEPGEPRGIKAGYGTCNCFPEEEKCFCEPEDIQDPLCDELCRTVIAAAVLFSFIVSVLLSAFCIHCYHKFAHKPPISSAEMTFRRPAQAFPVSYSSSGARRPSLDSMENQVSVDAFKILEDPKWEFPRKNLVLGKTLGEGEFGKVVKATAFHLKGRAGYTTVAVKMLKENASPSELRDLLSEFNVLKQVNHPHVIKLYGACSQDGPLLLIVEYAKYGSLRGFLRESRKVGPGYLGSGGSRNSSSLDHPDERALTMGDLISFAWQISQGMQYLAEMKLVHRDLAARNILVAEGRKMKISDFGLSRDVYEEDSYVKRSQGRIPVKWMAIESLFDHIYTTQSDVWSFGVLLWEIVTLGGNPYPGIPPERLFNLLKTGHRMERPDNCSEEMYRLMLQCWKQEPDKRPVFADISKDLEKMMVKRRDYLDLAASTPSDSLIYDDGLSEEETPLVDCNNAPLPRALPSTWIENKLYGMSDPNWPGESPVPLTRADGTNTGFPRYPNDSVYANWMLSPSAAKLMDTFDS

The first assay has as its target T1, GFRα1-RET (Homo sapiens, UniProt P56159).
T1 construct: expressed in transfected cells; host or cells: MG87 murine fibroblast
Put plainly: Luciferase assay: activation of Elk1 signaling in reporter-gene cells expressing GFRα1-RET (MG87 murine fibroblast stably transfected with PathDetect Elk-1, GFRα1, and RET). Format: cell-based. The note with it: Table 4; MG87 murine fibroblasts with PathDetect Elk-1, GFRα1, RET; 6 concentrations, duplicate, two times independently; agonist/activator activity; read-out: Luciferase Assay EC50. As for the experimental part:
The purpose of this experiment was to evaluate the GFRα1-RET activity of the compounds 001-060 according to the invention.
The compounds were tested for their activating activity of Elk1 signaling using the previously developed reporter-gene-based system in cells expressing GFRα1-RET (MG87 murine fibroblast stably transfected with PathDetect Elk-1, GFRα1, and RET) disclosed in Sidorova, Y. A. et al.: “Persephin signaling through GFRα1: The potential for the treatment of Parkinson's disease.” Molecular and Cellular Neuroscience, July 2010, Vol. 44, pp. 223-232. DOI: 10.1016/j.mcn.2010.03.009. For EC50 determination, a dose-response test was performed using 6 concentrations of each tested compound. Dose-response curves were fitted using the sigmoidal dose-response (variable slope) analysis in GraphPad Prism program (Graph Pad Inc) and EC50 of agonist/activator activity was calculated. Dose-response experiments were all performed in duplicate, two times independently.
The compounds were tested for their activating activity of Elk1 signaling using the same materials and methods than for the compounds according to the invention (Example 2 herein, section “Materials and methods”).
With `O=C(c1ccc(F)cc1Cl)N1CCN(c2cc(S(=O)(=O)N3CCC(F)CC3)cc(Cl)c2O)CC1` [Compound 057, (2-chloro-4-fluoro-phenyl)-[4-[3-chloro-5-[(4-fluoro-1-piperidyl)sulfonyl]-2-hydroxy-phenyl]piperazin-1-yl]methanone], the EC50 fell in the range of 1 to 5 µM. Regarding `COc1ccc(S(=O)(=O)N2CCC(=Cc3ccccc3)CC2)cc1N1CCN(C(=O)c2ccc(F)cc2Cl)CC1` [Compound 023, [4-[5-[(4-benzylidene-1-piperidyl)sulfonyl]-2-methoxy-phenyl]piperazin-1-yl]-(2-chloro-4-fluoro-phenyl)methanone], the EC50 is < 1 µM. `COc1ccc(S(=O)(=O)N2CCC(c3ccccc3)C2)cc1N1CCN(C(=O)c2ccc(F)cc2Cl)CC1` (stereo not shown) [Compound 028, (2-chloro-4-fluoro-phenyl)-[4-[2-methoxy-5-[3-phenylpyrrolidin-1-yl]sulfonyl-phenyl]piperazin-1-yl]methanone]: the EC50 was 1 to 5 µM. Same read-out and setting: as for `CCN(CC)S(=O)(=O)c1cccc(N2CCN(C(=O)c3ccc(F)cc3C(F)(F)F)CC2)c1` [Compound 041, N,N-diethyl-3-[4-[4-fluoro-2-(trifluoromethyl)benzoyl]piperazin-1-yl]benzenesulfonamide], the figure is 10 to 50 µM. Consider `COc1ccc(S(=O)(=O)N2CCC(O)(c3ccccc3)CC2)cc1N1CCN(C(=O)c2ccc(F)cc2Cl)CC1` [Compound 011, (2-chloro-4-fluoro-phenyl)-[4-[5-[(4-hydroxy-4-phenyl-1-piperidyl)sulfonyl]-2-methoxy-phenyl]piperazin-1-yl]methanone], for which the EC50 fell in the range of 5 to 10 µM.

Turning to `CCCN(C)S(=O)(=O)c1ccc(OC)c(N2CCN(C(=O)c3ccc(F)cc3C(F)F)CC2)c1` [Compound 006, 3-[4-[2-(difluoromethyl)-4-fluoro-benzoyl]piperazin-1-yl]-4-methoxy-N-methyl-N-propyl-benzenesulfonamide], the EC50 was 1 to 5 µM. With `COc1ccc(S(=O)(=O)N(C)CCCC(F)(F)F)cc1N1CCN(C(=O)c2ccc(F)cc2Cl)CC1` [Compound 037, 3-[4-(2-chloro-4-fluoro-benzoyl)piperazin-1-yl]-4-methoxy-N-methyl-N-(4,4,4-trifluorobutyl)benzenesulfonamide], the EC50 was 10 to 50 µM. Take `COc1ccc(S(=O)(=O)N2CCC(Cc3ccccc3)CC2)cc1N1CCN(C(=O)c2ncc(F)cc2Cl)CC1` [Compound 008, [4-[5-[(4-benzyl-1-piperidyl)sulfonyl]-2-methoxy-phenyl]piperazin-1-yl]-(3-chloro-5-fluoro-2-pyridyl)methanone]: the EC50 was 5 to 10 µM.

`COc1ccc(S(=O)(=O)N2CCCC2)cc1N1CCN(C(=O)c2ccc(F)cc2Cl)CC1` [Compound 004, (2-chloro-4-fluoro-phenyl)-[4-(2-methoxy-5-pyrrolidin-1-ylsulfonyl-phenyl)piperazin-1-yl]methanone]: the EC50 fell in the range of 1 to 5 µM. Turning to `COc1ccc(S(=O)(=O)N(C)Cc2ccc(F)cc2)cc1N1CCN(C(=O)c2ccc(F)cc2Cl)CC1` [Compound 021, 3-[4-(2-chloro-4-fluoro-benzoyl)piperazin-1-yl]-N-[(4-fluorophenyl)methyl]-4-methoxy-N-methyl-benzenesulfonamide], the EC50 was 5 to 10 µM. For `COc1ccc(S(=O)(=O)N(C)CC2CCC2)cc1N1CCN(C(=O)c2ccc(F)cc2Cl)CC1` [Compound 014, 3-[4-(2-chloro-4-fluoro-benzoyl)piperazin-1-yl]-N-(cyclobutylmethyl)-4-methoxy-N-methyl-benzenesulfonamide], the EC50 lay in the range of 5 to 10 µM. For `COc1ccc(S(=O)(=O)N2CCC(c3ccc(F)cc3)CC2)cc1N1CCN(C(=O)c2ccc(F)cc2Cl)CC1` [Compound 050, (2-chloro-4-fluoro-phenyl)-[4-[5-[[4-(4-fluorophenyl)-1-piperidyl]sulfonyl]-2-methoxy-phenyl]piperazin-1-yl]methanone], the EC50 is < 1 µM. `COc1ccc(S(=O)(=O)N2CCCC(c3ccccc3)C2)cc1N1CCN(C(=O)c2ccc(F)cc2Cl)CC1` (stereo not shown) [Compound 026, (2-chloro-4-fluoro-phenyl)-[4-[2-methoxy-5-[[3-phenyl-1-piperidyl]sulfonyl]phenyl]piperazin-1-yl]methanone]: the EC50 was 1 to 5 µM. Same read-out and setting: the result for `COc1ccc(S(=O)(=O)N(C)C2CCCC2)cc1N1CCN(C(=O)c2ccc(F)cc2Cl)CC1` [Compound 016, 3-[4-(2-chloro-4-fluoro-benzoyl)piperazin-1-yl]-N-cyclopentyl-4-methoxy-N-methyl-benzenesulfonamide] reads 5 to 10 µM.

As to `CN(CC1CC1)S(=O)(=O)c1cc(Cl)c(O)c(N2CCN(C(=O)c3ccc(F)cc3Cl)CC2)c1` [Compound 059, 3-chloro-5-[4-(2-chloro-4-fluoro-benzoyl)piperazin-1-yl]-N-(cyclopropylmethyl)-4-hydroxy-N-methyl-benzenesulfonamide], the EC50 is < 1 µM. As to `CCCN(C)S(=O)(=O)c1cc2c(c(N3CCN(C(=O)c4ccc(F)cc4C(F)(F)F)CC3)c1)OCC2` [Compound 043, 7-[4-[4-fluoro-2-(trifluoromethyl)benzoyl]piperazin-1-yl]-N-methyl-N-propyl-2,3-dihydrobenzofuran-5-sulfonamide], the EC50 was 1 to 5 µM.

As for `COc1ccc(S(=O)(=O)N(C)C(C)(C)C)cc1N1CCN(C(=O)c2ccc(F)cc2Cl)CC1` [Compound 033, N-tert-butyl-3-[4-(2-chloro-4-fluoro-benzoyl)piperazin-1-yl]-4-methoxy-N-methyl-benzenesulfonamide], the EC50 was in the range of 5 to 10 µM. As to `COc1ccc(S(=O)(=O)N2CCC(Cc3ccccc3)C2)cc1N1CCN(C(=O)c2ccc(F)cc2Cl)CC1` (stereo not shown) [Compound 029, (2-chloro-4-fluoro-phenyl)-[4-[2-methoxy-5-[3-benzylpyrrolidin-1-yl]sulfonyl-phenyl]piperazin-1-yl]methanone], the EC50 was in the range of 5 to 10 µM. Turning to `COc1ccc(S(=O)(=O)N2CCN(CC(C)c3ccccc3)CC2)cc1N1CCN(C(=O)c2ccc(F)cc2Cl)CC1` (racemic) [Compound 053, (2-chloro-4-fluoro-phenyl)-[4-[2-methoxy-5-[4-[rac-(2R)-2-phenylpropyl]piperazin-1-yl]sulfonyl-phenyl]piperazin-1-yl]methanone], the EC50 fell in the range of 1 to 5 µM. On the same count and under the same terms, the result for `COc1ccc(S(=O)(=O)N2CCN(Cc3ccccc3)CC2)cc1N1CCN(C(=O)c2ccc(F)cc2Cl)CC1` [Compound 013, [4-[5-(4-benzylpiperazin-1-yl)sulfonyl-2-methoxy-phenyl]piperazin-1-yl]-(2-chloro-4-fluoro-phenyl)methanone] reads 5 to 10 µM; that for `COc1ccc(S(=O)(=O)N2CCC(OCc3ccccc3)C2)cc1N1CCN(C(=O)c2ccc(F)cc2Cl)CC1` (stereo not shown) [Compound 039, (2-chloro-4-fluoro-phenyl)-[4-[2-methoxy-5-[3-benzyloxypyrrolidin-1-yl]sulfonyl-phenyl]piperazin-1-yl]methanone], 1 to 5 µM; that for `COc1ccc(S(=O)(=O)N(C)C2CCCCC2)cc1N1CCN(C(=O)c2ccc(F)cc2Cl)CC1` [Compound 017, 3-[4-(2-chloro-4-fluoro-benzoyl)piperazin-1-yl]-N-cyclohexyl-4-methoxy-N-methyl-benzenesulfonamide], 1 to 5 µM. Still for that read-out and setting: as for `COc1ccc(S(=O)(=O)N2CCC(Cc3ccccc3)CC2)cc1N1CCN(C(=O)c2ccc(F)cc2C(F)F)CC1` [Compound 010, [4-[5-[(4-benzyl-1-piperidyl)sulfonyl]-2-methoxy-phenyl]piperazin-1-yl]-[2-(difluoromethyl)-4-fluoro-phenyl]methanone], the figure is 1 to 5 µM; as for `CCCN(C)S(=O)(=O)c1ccc(O)c(N2CCN(C(=O)c3ccc(F)cc3C(F)(F)F)CC2)c1` [Compound 048, 3-[4-[4-fluoro-2-(trifluoromethyl)benzoyl]piperazin-1-yl]-4-hydroxy-N-methyl-N-propyl-benzenesulfonamide], 5 to 10 µM; as for `COc1ccc(S(=O)(=O)N2CCC(O)(Cc3ccccc3)CC2)cc1N1CCN(C(=O)c2ccc(F)cc2Cl)CC1` [Compound 012, [4-[5-[(4-benzyl-4-hydroxy-1-piperidyl)sulfonyl]-2-methoxy-phenyl]piperazin-1-yl]-(2-chloro-4-fluoro-phenyl)methanone], 5 to 10 µM.

The same assay, now with this note: Table 6, comparison with comparative compounds; values for 001, 009, 010 reported from Table 4; MG87 GFRα1-RET cells; read-out: Luciferase Assay EC50.
Regarding `COc1ccc(S(=O)(=O)N2CCC(Cc3ccccc3)CC2)cc1N1CCN(C(=O)c2cc(F)ccc2C(F)(F)F)CC1` [Compound C01, (4-(5-((4-benzylpiperidin-1-yl)sulfonyl)-2-methoxyphenyl)piperazin-1-yl)(5-fluoro-2-(trifluoromethyl)phenyl)methanone, reference compound], the EC50 was > 50 µM.

`CCN(CC)S(=O)(=O)c1ccc(OC)c(N2CCN(C(=O)c3cc(F)ccc3C(F)(F)F)CC2)c1` [Compound C02, N,N-diethyl-3-(4-(5-fluoro-2-(trifluoromethyl)benzoyl)piperazin-1-yl)-4-methoxybenzenesulfonamide, reference compound]: the EC50 was > 50 µM. Turning to `COc1ccc(S(=O)(=O)N2CCC(Cc3ccccc3)CC2)cc1N1CCN(C(=O)c2ccc(F)cc2C(F)F)CC1` [Compound 010, [4-[5-[(4-benzyl-1-piperidyl)sulfonyl]-2-methoxy-phenyl]piperazin-1-yl]-[2-(difluoromethyl)-4-fluoro-phenyl]methanone], the EC50 fell in the range of 1 to 5 µM.

The same assay, now with this note: text statement on Table 6 results, GFRα1-RET luciferase assay; read-out: EC50.
Regarding `COc1ccc(S(=O)(=O)N2CCC(Cc3ccccc3)CC2)cc1N1CCN(C(=O)c2cc(F)ccc2C(F)(F)F)CC1` [Compound C01, (4-(5-((4-benzylpiperidin-1-yl)sulfonyl)-2-methoxyphenyl)piperazin-1-yl)(5-fluoro-2-(trifluoromethyl)phenyl)methanone, reference compound], the EC50 was > 50 µM. Still for that read-out and setting: as for `CCN(CC)S(=O)(=O)c1ccc(OC)c(N2CCN(C(=O)c3cc(F)ccc3C(F)(F)F)CC2)c1` [Compound C02, N,N-diethyl-3-(4-(5-fluoro-2-(trifluoromethyl)benzoyl)piperazin-1-yl)-4-methoxybenzenesulfonamide, reference compound], the figure is > 50 µM; as for `COc1ccc(S(=O)(=O)N2CCC(Cc3ccccc3)CC2)cc1N1CCN(C(=O)c2ccc(F)cc2C(F)F)CC1` [Compound 010, [4-[5-[(4-benzyl-1-piperidyl)sulfonyl]-2-methoxy-phenyl]piperazin-1-yl]-[2-(difluoromethyl)-4-fluoro-phenyl]methanone], < 10 µM.
